The source of these data is ChEMBL document CHEMBL4825704, “Withanolide Derivative 2,3-Dihydro-3β-methoxy Withaferin-A Modulates the Circadian Clock via Interaction with RAR-Related Orphan Receptor α (RORa)” (J Nat Prod, 2021).

Structures are written as SMILES. The source made the active and inactive calls. No cut-off for these calls is given here.

For test [1], the target named is T1, Nuclear receptor ROR-alpha (Mus musculus, UniProt P51448).
T1 sequence (P51448 whole entry): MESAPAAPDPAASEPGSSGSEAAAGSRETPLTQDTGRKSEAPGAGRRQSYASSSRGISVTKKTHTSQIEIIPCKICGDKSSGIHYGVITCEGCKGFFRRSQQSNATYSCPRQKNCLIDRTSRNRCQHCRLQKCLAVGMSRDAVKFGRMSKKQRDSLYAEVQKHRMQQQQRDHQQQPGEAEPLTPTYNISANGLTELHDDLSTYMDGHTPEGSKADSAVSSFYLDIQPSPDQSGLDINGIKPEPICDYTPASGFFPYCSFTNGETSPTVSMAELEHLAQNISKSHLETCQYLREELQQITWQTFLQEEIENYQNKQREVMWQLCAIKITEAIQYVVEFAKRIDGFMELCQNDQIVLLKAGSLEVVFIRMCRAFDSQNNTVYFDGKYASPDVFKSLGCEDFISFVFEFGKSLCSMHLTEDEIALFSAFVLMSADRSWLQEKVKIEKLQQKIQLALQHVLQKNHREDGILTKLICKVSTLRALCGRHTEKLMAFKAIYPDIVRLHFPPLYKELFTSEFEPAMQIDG
Put plainly: Inverse agonist activity at RORalpha in mouse NIH3T3 cells incubated for 24 hrs by luminescence based assay. It is filed as cell-based.

The test system of test [2] is NIH3T3. Put plainly: Transcriptional upregulation of […] mRNA expression in dexamethasone-induced mouse NIH3T3 cells at 15 uM measured after 24 hrs by qPCR analysis relative to control. It is filed as functional. On the technique in general: Quantitative PCR measures a nucleic acid by following its amplification.
In test [3] the test system is NIH3T3. Put plainly: Transcriptional upregulation of […] mRNA expression in dexamethasone-induced mouse NIH3T3 cells at 5 uM measured after 24 hrs by qPCR analysis relative to control. It is filed as functional.
Test [4] relates to NIH3T3. Put plainly: Transcriptional upregulation of Rora mRNA expression in dexamethasone-induced mouse NIH3T3 cells at 15 uM measured after 24 hrs by qPCR analysis relative to control. The format is functional.
The test system of test [5] is NIH3T3. Put plainly: Transcriptional upregulation of Rora mRNA expression in dexamethasone-induced mouse NIH3T3 cells at 5 uM measured after 24 hrs by qPCR analysis relative to control. It is filed as functional.
For test [6], the system named is Sarcoma-180. The test can be described thus: Transcriptional upregulation of Bmal1 mRNA expression in dexamethasone-induced mouse Sarcoma-180 cells at 5 uM measured after 24 hrs by RT-qPCR analysis relative to control. The format is functional.
A short description of test [7]: Induction of Bmal1 promotor activity in dexamethasone-induced mouse NIH3T3 cells transfected with Bmal1 promotor-reporter plasmids at 15 uM measured after 24 hrs by bioluminescence assay relative to control. It is filed as functional.
Test [8] in a line: Induction of Bmal1 promotor activity in dexamethasone-induced mouse NIH3T3 cells transfected with Bmal1 promotor-reporter plasmids at 5 uM measured after 24 hrs by bioluminescence assay relative to control. The format is functional.
For test [9], the system named is Sarcoma-180. The test can be described thus: Transcriptional upregulation of Bmal1 mRNA expression in dexamethasone-induced mouse Sarcoma-180 cells at 1 uM measured after 24 hrs by RT-qPCR analysis relative to control. It is filed as functional.
Test [10] has as its system Sarcoma-180. Put plainly: Cytotoxicity against mouse Sarcoma-180 cells assessed as reduction in cell proliferation by measuring growth rate at 1 uM measured after 3 days by WST-8 assay relative to control. The format is functional. The arrangement: scale not given: the % may be the effect or the level left.
For test [11], the system named is Sarcoma-180. Put plainly: Cytotoxicity against mouse Sarcoma-180 cells assessed as reduction in cell proliferation at 1 uM measured up to 5 days by WST-8 assay. The format is functional, cell-based. To be noted: time day <=5.
In test [12] the test system is Sarcoma-180. The test can be described thus: Elongation of circadian rhythms in dexamethasone-induced mouse Sarcoma-180 cells assessed as increase in Bmal1 period time at 5 uM measured for 1 mins at 10 min interval up to 96 hrs by bioluminescence based Bmal1 promoter-reporter gene assay (reference value: 25.70 +/- 0.30 hrs). The format is functional. To be noted: time hrs <=96. (In general: Reporter assays use an easily measured gene product as a stand-in for the process of interest.)

Test [13] relates to NIH3T3. Put plainly: Elongation of circadian rhythms in dexamethasone-induced mouse NIH3T3 cells assessed as increase in Bmal1 period time at 1 uM measured for 1 mins at 10 min interval up to 96 hrs by dual luciferase reporter gene assay (reference value: 25.02 +/- 0.15 hrs). As to conditions: time hrs <=96. The format is functional.
For test [14], the system named is NIH3T3. Put plainly: Elongation of circadian rhythms in dexamethasone-induced mouse NIH3T3 cells assessed as increase in Bmal1 period time at 5 uM measured for 1 mins at 10 min interval up to 96 hrs by dual luciferase reporter gene assay (reference value: 25.02 +/- 0.15 hrs). The format is functional. As to conditions: time hrs <=96.
Test [15] has as its system Sarcoma-180. The test can be described thus: Elongation of circadian rhythms in dexamethasone-induced mouse Sarcoma-180 cells assessed as increase in Bmal1 period length at 1 to 5 uM measured for 1 mins at 10 min interval up to 96 hrs by bioluminescence based Bmal1 promoter-reporter gene assay. The format is functional, cell-based. To be noted: dose 1-5 µM, time hrs <=96.

For test [16], the system named is MEF. Put plainly: Elongation of circadian rhythms in dexamethasone-induced mouse embryonic fibroblasts expressing PER2-luc gene assessed as increase in PER2 period time at 1 uM measured for 1 mins at 10 min interval up to 96 hrs by bioluminescence based PER2 promoter-reporter gene assay (reference value: 23.17 +/- 0.10 hrs). It is filed as functional. To be noted: time hrs <=96.

Test [17] relates to MEF. The test can be described thus: Elongation of circadian rhythms in dexamethasone-induced mouse embryonic fibroblasts expressing PER2-luc gene assessed as increase in PER2 period time at 1.67 uM measured for 1 mins at 10 min interval up to 96 hrs by bioluminescence based PER2 promoter-reporter gene assay (reference value: 23.17 +/- 0.10 hrs). To be noted: time hrs <=96. The format is functional.

The test system of test [18] is MEF. Put plainly: Elongation of circadian rhythms in dexamethasone-induced mouse embryonic fibroblasts expressing PER2-luc gene assessed as increase in PER2 period time at 5 uM measured for 1 mins at 10 min interval up to 96 hrs by bioluminescence based PER2 promoter-reporter gene assay (reference value: 23.17 +/- 0.10 hrs). The format is functional. As to conditions: time hrs <=96.

Test [19] has as its system MEF. Put plainly: Elongation of circadian rhythms in dexamethasone-induced mouse embryonic fibroblasts expressing PER2-luc gene assessed as increase in PER2 period time at 25 uM measured for 1 mins at 10 min interval up to 96 hrs by bioluminescence based PER2 promoter-reporter gene assay (reference value: 23.17 +/- 0.10 hrs). The format is functional. As to conditions: time hrs <=96.

Test [20] has as its system NIH3T3. The test can be described thus: Transcriptional upregulation of Bmal1 mRNA expression in dexamethasone-induced mouse NIH3T3 cells at 1 uM measured after 24 hrs by RT-qPCR analysis relative to control. The format is functional.
Test [21] deals with NIH3T3. Put plainly: Transcriptional upregulation of Bmal1 mRNA expression in dexamethasone-induced mouse NIH3T3 cells at 5 uM measured after 24 hrs by RT-qPCR analysis relative to control. It is filed as functional.
Test [22] deals with Sarcoma-180. Put plainly: Cytotoxicity against mouse Sarcoma-180 cells assessed as reduction in cell proliferation at 5 uM measured up to 5 days by WST-8 assay. It is filed as functional, cell-based. To be noted: time day <=5. For orientation: Formazan colour is commonly taken as a measure of viable cells.
The subject of test [23] is Sarcoma-180. Put plainly: Elongation of circadian rhythms in dexamethasone-induced mouse Sarcoma-180 cells assessed as increase in Bmal1 period length measured for 1 mins at 10 min interval up to 96 hrs by bioluminescence based Bmal1 promoter-reporter gene assay. It is filed as functional, cell-based. As to conditions: dose 1-5 µM, time hrs <=96.
For test [24], the target named is T2, Nuclear receptor ROR-alpha (Mus musculus) (UniProt P51448).
T2 sequence (whole entry): T1 sequence (P51448 whole entry)
The test can be described thus: Agonist activity at RORalpha in mouse NIH3T3 cells at 1 to 1000 uM incubated for 24 hrs by luminescence based assay. The format is cell-based. To be noted: dose 1-1000 µM.

A word on the IC50: it is the concentration at which inhibition is half-maximal. Consider `CO[C@H]1CC(=O)[C@]2(C)[C@H]3CC[C@]4(C)[C@@H]([C@H](C)[C@H]5CC(C)=C(CO)C(=O)O5)CC[C@H]4[C@@H]3C[C@H]3O[C@]32[C@H]1O`, for which the IC50 in test [1] was found to be 11.3 µM. Also, the “fold change (FC)” value in the test with NIH3T3 [2] came to 1.57; with NIH3T3 [3], 1.2; in the test with NIH3T3 [4] it was 1.68; in the test with NIH3T3 [5] it was 1.61; with Sarcoma-180 [6] it was 2.13; in test [7], 1.83. The “fold change (FC)” value in test [8] is reported as 1.32; in the test on Sarcoma-180 [9] it was 1.34. For the same molecule, the Activity with Sarcoma-180 [10] (time 3 day) is 59.8%; in the test with NIH3T3 [20], 1.43 fold change; in the test with NIH3T3 [21] it was 1.75 fold change; in the test on Sarcoma-180 [23] it was “Dose-Dependent Effect”. The outcome in the test with Sarcoma-180 [11], with Sarcoma-180 [15] and in the test on Sarcoma-180 [22] was Active. The Time in the test on Sarcoma-180 [12] was found to be 31.7 h; with NIH3T3 [13], 25.01 h; in the test with NIH3T3 [14] it was 26.06 h; in the test on MEF [16], 22.98 h; in the test on MEF [17], 24.17 h; in the test with MEF [18], 25.36 h. Besides, in the test with MEF [19], the Time worked out at 26.11 h.

For the molecule `CC(C)CCC[C@@H](C)[C@H]1CC[C@H]2C3=CC=C4C[C@@H](O)CC[C@]4(C)[C@H]3CC[C@]12C`, in test [24] (filed as agonist), the result was Active.

For `CC1=C(CO)C(=O)O[C@@H]([C@@H](C)[C@H]2CC[C@H]3[C@@H]4C[C@H]5O[C@]56[C@@H](O)C=CC(=O)[C@]6(C)[C@H]4CC[C@]23C)C1`, the outcome in the test with Sarcoma-180 [10] (time 3.0 day), with Sarcoma-180 [11] and in the test with Sarcoma-180 [12] was Active. The result in test [24] was inactive.
